Reference: patent US11051516B2, “Antimicrobial sanitizer compositions and their use” (GFS CORPORATION AUS PTY LTD, priority 2014, dated 2021)

Test system: Escherichia coli K12 NCTC 10538
Experiment: Hygienic Handrub test BS EN 1500:2013 on human volunteers' hands
Assay type: in vivo
Method: The composition of Example 2 was tested for compliance with requirements for chemical disinfectants and antiseptics in accordance with European Standard BS EN 1500:2013 Chemical Disinfectants and Antiseptics—Hygienic Handrub—Test Method and Requirements. The test organism was Escherichia coli K12 NCTC 10538 which was obtained as a freeze dried ampoule and was reconstituted using Tryptone Soy Broth and incubated to achieve a concentration of 2×10^9 Cfu/mL. The reference standard was propan-2-ol 60% v/v solution in sterile water. There were no deviations from the standard test method.
Human volunteer's hands were washed for 1 minute with diluted soft soap (5 mL), rinsed in running water and dried with a paper towel for at least 30 seconds. The hands were immersed up to the mid-metacarpals for five seconds and the liquid was allowed to drain back into the container for a maximum of 30 seconds before allowing to air dry for three minutes.
The reference standard (3.0 mL) was applied and rubbed for 30 seconds. This was repeated with a second portion of reference standard (3.0 mL) and rubbing for a further 30 seconds. This procedure was repeated for 20 volunteers.
This protocol was repeated on 20 volunteers using the composition of Example 2.
The protocol of Example 16 was repeated for the composition of Example 4.

CC(C)O [reference standard, propan-2-ol]
Mean Log Reduction Factor (Example 16, 20 volunteers, 2 x 3.0 mL, rubbed 30 seconds each): 3.89
Mean Log Reduction Factor (Example 17, protocol of Example 16 repeated): 3.90
